These results are taken from patent US20230265099A1, “SIK INHIBITORS AND METHODS OF USE THEREOF” (SOLTEGO, INC., priority 2020, published 2023).

Each structure is given as a SMILES string. pIC50: −log10 of the molar value. “Also recorded” adds a separate entry of the source. Bounds are passed on as bounds.

The test system of data set [1] is reconstituted melanized human epidermis (NHEKs and NHEMs-MP melanocytes). Kind of data set: Melanin content from Fontana-Masson stained sections of reconstituted melanized human epidermis. The format is cell-based. To be noted: for melanin content (Fontana-Masson stained sections): % relative to DMSO 0.005%. On the procedure: Based on the results of dose determination studies, 0.3 μg/ml, 0.01 μg/ml and 0.0033 μg/ml doses of SLT-008 were selected for further application in a culture medium of reconstituted melanized human epidermis. The pigmentation effect studies were carried out on epidermis reconstituted with NHEKs (Normal human epidermal keratinocytes, Lonza 00192906) isolated from foreskin of 3 neonatal Caucasian donors and NHEMs-MP melanocytes.
The tissues were cultured at the air-liquid interface in Epilife medium (Fisher Scientific, MEPI500CA) containing specific supplements (with among others Human Keratinocytes Growth Factors, Fisher Scientific S0015 or S001K) and antibiotics (Gentamycin, Fisher Scientific, 15710049). They were maintained in a humid atmosphere at 37° C. with 5% CO2.
Melanocytes were co-cultured with reconstructed epidermis and cultivated at the air-liquid interface during 14 days in culture medium in a humid atmosphere at 37° C. with CO2 5%. SLT-008 was applied in the culture medium at 3 concentrations, during 10 days, from day 4 to day 14 after placement at the air/liquid interface (n=6), with 5 medium refreshes (at day 7, 8, 9, 10 and 11). In order to allow pigmentation of the epidermis, the concentration in BPE (bovine pituitary extract) in culture medium was adapted during the treatments. DMSO at 0.005%, used for the compounds solubilization was used as reference control condition. IBMX at 150 μM and forskolin at 3.33 μM were used as pro-pigmentation reference compounds to validate the experiment. An additional DMSO control at 0.05% corresponding to the solvent of the reference compounds was added as well in the experiment.
At the end of treatments (day 14), a morphology analysis was performed. The epidermis pigmentation was quantified after solvable extraction and quantified through Fontana Masson staining of histologic sections. 6 μm sections of epidermis embedded in paraffin were prepared and stained with Fontana Masson reagents. Fontana Masson staining specifically stains melanin within the epidermis. In order to visualize the epidermis in addition to the melanin, a counterstaining with hemalum/eosin was performed as well. Tissue section staining was performed in three series with one set for each test compound. Slides with sections of epidermis treated with DMSO at 0.005% were put in each set for Fontana Masson staining in order to compare the effects of the SLT-008.
Melanin deposition on 6 μm paraffin sections of each epidermis was stained by Fontana-Masson reagents (VWR-VWRK641295, VWRK641311; Klinipath-641215). […]
For the melanin quantification, 3 pictures of each epidermis were taken and analyzed by using the Leica QWin3 software. […]
Melanin content was determined from Fontana-Masson stained sections (% relative to DMSO 0.005%). […]

The test system of data set [2] is melanized reconstructed human epidermis. The data set can be described thus: LDH release assay on melanized reconstructed human epidermis. The format is cell-based. The protocol:
Quantification of lactate dehydrogenase (LDH) release from melanized tissue was performed at mid-treatment and at the end of treatment with the SLT-008 to ensure that the selected doses were not cytotoxic for the melanized reconstructed human epidermis. The release of LDH by the culture model was assessed after 5 and 10 days of treatments with the Cytotoxicity Detection KitPLUS (Roche-04744926001) according to the manufacturer's instructions. Briefly, culture supernatants were collected and mixed with LDH detection reactants in 96-well plates for 30 min before measuring optical density at 490 nm with a reference wavelength of 600 nm using a spectrophotometer (GloMax-Promega). This was performed in triplicates of cultures (n=3). […] The effect of these concentrations was thus studied on the tissue pigmentation (FIG. 5).
In general terms: LDH leaks from cells whose membrane has failed.

Data set [3] deals with Primary human epidermal keratinocytes (hEK) cocultured with human epidermal melanocytes. Kind of data set: Topical application on keratinocyte/melanocyte coculture skin model, Fontana Masson staining. It is filed as cell-based. To be noted: single topical application. On the procedure: Primary human epidermal keratinocytes (hEK) were seeded onto suitable carrier matrices and cocultured with human epidermal melanocytes. SLT-8 was solubilized in PEG/Ethanol/Transcutol® at 0.3 mM, 1 mM and 3 mM and applied topically using a mesh to the surface of the models and removed after 4 hours. Test compounds were applied once daily over a period of 4 days. Untreated models and models treated with the vehicle only served as controls. UV irradiated models were used as positive controls. Fontana Masson staining was conducted to visualize pigmentation effects. Fontana-Masson staining is routinely used to visualize argentaffin substances such as melanin, argentaffin granules and some neurosecretory granules. Melanin is a nonlipid, non-hematogenous pigment. It is a brown-black pigment present normally in the hair, skin, retina, iris, and certain parts of the central nervous system. Argentaffin granules are found in carcinoid tumors. The argentaffin cell granules or melanin stain black. Nuclei stain pink-red. The cytoplasm stains pale pink.

Data set [4] concerns reconstituted melanized epidermis. The data set can be described thus: Hematoxylin/eosin (H/E) morphology of reconstituted melanized epidermis. It is filed as cell-based, human. To be noted: 3 selected doses (0.3, 0.01, 0.0033 μg/ml) in culture medium. On the procedure: Next, absence of toxicity of the three doses was evaluated in reconstituted melanized epidermis by hematoxylin/eosin (H/E) staining of histologic sections.
At the end of the treatments with the test compounds, 3 tissues per dose (n=3) were fixed in 4% formaldehyde, dehydrated and paraffin embedded. Sections of 6 μm of epidermis were stained with eosin and hematoxylin (H/E). Slides were mounted with specific medium and examined with a Leica DM2000 photomicroscope coupled to a digital camera (Zeiss).

The test system of data set [5] is reconstructed epidermis. The data set can be described thus: Melanin content by chemical (solvable) extraction of reconstructed epidermis. To be noted: applied at 1 and 0.1 μg/ml and more so at 0.3 μg/ml. The format is cell-based, human. On the procedure:
Using similar methods described previously in this Example, the experiments were repeated. At the end of these treatments, tissues (n=3) were removed from their inserts and immerged in a solvable extraction solution (Perkin Elmer-NJTSRN8010060) and heated at 80° C. for 1 h. The optical density of the supernatants was measured at 490 nm with a spectrophotometer (GloMax-Promega) and the melanin content was determined by comparison with a standard curve of synthetic melanin (Sigma-M8631)

For data set [6], the system named is human living skin explants. The data set can be described thus: Pigmentation activity on human living skin explants with stripping. The format is cell-based. On the procedure: The pigmentation activity of SLT-008 at two concentrations was evaluated on skin using human living skin explants with stripping.
Human skin explants of an average diameter of 11 mm (±1 mm) were prepared on an abdominoplasty from a person with a III phototype. The explants were kept alive in BEM culture medium (BIO-EC's Explants Medium) at 37° C. in a humid, 5%-CO2 atmosphere. The study was performed on human skin tissue, obtained from surgical residues in accord with the Declaration of Helsinki and the article L.1243-4 of the French Public Health Code.
On day 0, the explants of the batches “S” were stripped 5 times using scotch 3M to remove some stratum corneum layers to facilitate the penetration of the tested products. The excipient and the tested products were applied topically on the basis of 2 μl per explant (2 mg/cm^2) and spread using a small spatula on day 0 (D0, after the stripping), D1, D4, D6 and D8.
The culture medium was half renewed (1 ml per well) on D0, D1, D4, D6 and D8. On D0, D1, D4, D5, D6, D7 and D8, the culture media of the irradiated explants (TUV) were replaced by HBSS (Hank's Balanced Saline Solution; 1 ml per explant). Then, the explants of the “TUV” batch were irradiated using a UV simulator Vibert Lourmat RMX 3W with a dose of 2.25 J/cm2 of UVA corresponding to 0.5 MED (minimal erythemal dose) for a phototype II donor. […]

The target in data set [7] is SIK3(h) (Homo sapiens, UniProt Q9Y2K2). Kind of data set: Salt Induced Kinase inhibition, radiometric [γ-33P]-ATP filter assay, SIK3. The format is biochemical.
In data set [8] the test system is apoptotic cells in the epidermis of human skin explants. Kind of data set: Stripping-induced apoptosis DNA protection study, TUNEL assay on skin explants. The format is cell-based. To be noted: 0.9% in absolute ethanol, after tape stripping, Day 11, significant. From the text:
The aim of this study was to perform complementary immunostaining of TUNEL (apoptotic cell marker).
Histological processing: 5-μm-thick sections were made using a Leica RM 2125 Minot-type microtome, and the sections were mounted on Superfrost® histological glass slides. The microscopical observations were realized using a Leica DMLB, an Olympus BX43 or BX63 microscope. Pictures were digitized with a numeric DP72 or DP74 Olympus camera with CellSens storing software.
The staining was semi-quantified by image analysis.
Image analysis method: The images analyses was performed on all the images of the selected batch using CellSens software. Stained surfaces comparisons
The stained surface percentage (Surf %) for the treatment is compared to the untreated condition=>S vs T; SP vs S.

Chain of SIK3(h) (Q9Y2K2 whole entry): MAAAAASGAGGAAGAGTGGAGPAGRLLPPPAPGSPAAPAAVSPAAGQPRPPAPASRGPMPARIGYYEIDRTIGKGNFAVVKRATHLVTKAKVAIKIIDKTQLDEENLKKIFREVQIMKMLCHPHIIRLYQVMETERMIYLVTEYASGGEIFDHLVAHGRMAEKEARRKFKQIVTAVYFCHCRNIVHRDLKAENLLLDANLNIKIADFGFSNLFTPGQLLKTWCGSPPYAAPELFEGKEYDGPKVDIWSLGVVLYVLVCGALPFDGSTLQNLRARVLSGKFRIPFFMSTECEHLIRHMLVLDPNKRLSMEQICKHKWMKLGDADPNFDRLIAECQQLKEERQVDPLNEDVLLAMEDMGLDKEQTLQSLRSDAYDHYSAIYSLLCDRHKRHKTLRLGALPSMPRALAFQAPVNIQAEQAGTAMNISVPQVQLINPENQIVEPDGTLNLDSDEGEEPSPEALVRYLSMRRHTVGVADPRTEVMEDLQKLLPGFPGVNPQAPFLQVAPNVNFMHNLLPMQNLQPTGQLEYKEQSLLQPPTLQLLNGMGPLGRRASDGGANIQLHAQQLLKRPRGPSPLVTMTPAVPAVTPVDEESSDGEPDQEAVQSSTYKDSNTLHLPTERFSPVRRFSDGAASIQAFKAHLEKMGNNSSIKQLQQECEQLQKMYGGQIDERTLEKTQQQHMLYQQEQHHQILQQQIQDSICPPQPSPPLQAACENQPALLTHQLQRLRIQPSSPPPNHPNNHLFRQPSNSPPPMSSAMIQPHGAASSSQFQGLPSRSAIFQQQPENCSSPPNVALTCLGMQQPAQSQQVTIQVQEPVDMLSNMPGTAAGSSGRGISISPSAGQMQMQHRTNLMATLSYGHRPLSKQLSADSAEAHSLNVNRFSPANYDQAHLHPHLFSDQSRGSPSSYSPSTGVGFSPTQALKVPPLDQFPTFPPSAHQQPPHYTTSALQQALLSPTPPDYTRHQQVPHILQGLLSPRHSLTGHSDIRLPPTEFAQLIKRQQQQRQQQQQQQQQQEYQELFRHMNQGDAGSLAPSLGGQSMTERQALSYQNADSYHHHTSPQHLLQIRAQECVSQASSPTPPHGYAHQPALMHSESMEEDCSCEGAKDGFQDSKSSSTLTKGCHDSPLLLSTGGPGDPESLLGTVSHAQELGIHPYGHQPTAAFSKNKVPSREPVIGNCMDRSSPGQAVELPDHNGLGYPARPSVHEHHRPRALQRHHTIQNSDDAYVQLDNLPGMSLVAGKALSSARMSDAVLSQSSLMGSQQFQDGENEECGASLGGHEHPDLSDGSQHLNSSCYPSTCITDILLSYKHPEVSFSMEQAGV

On to `CC(C)Cn1c(=O)n(C)c(=O)c2[nH]cnc21` [IBMX, reference compound], for which, in data set [1] (positive controls: forskolin 3.33 μM, IBMX 150 μM, vs DMSO 0.05%), the “pigmentation (Fontana-Masson)” value is on record as “increased”.

As to `Cc1cccc(C)c1N1Cc2cnc(Nc3ccc(N4CCN(C)CC4)cc3)nc2N(C23CC4CC(CC(C4)C2)C3)C1=O` [SLT-008, 1-((3s,5s,7s)-adamantan-1-yl)-3-(2,6-dimethylphenyl)-7-((4-(4-methylpiperazin-1-yl)phenyl)amino)-3,4-dihydropyrimido[4,5-d]pyrimidin-2(1H)-one], the “LDH release from tissues” value in data set [2] (0.3 μg/ml, after 10 days of treatment, without reaching the set cytotoxic level) is “Slight and significant increase”. Also, in data set [2] (application for 10 days), the “tissue integrity (LDH release)” value is “did not induce relevant alteration of the tissue integrity”. For the same compound, the “melanin pigmentation (Fontana Masson staining)” value in data set [3] (1 mM in PEG/Ethanol/Transcutol) and in data set [3] (3 mM in PEG/Ethanol/Transcutol) was “induced melanin pigment dots at the stratum lucidum level” each time. Also, the “melanin transfer to keratinocytes and nuclear capping” value in data set [3] (3 mM) was “induced melanin transfer to keratinocytes and nuclear capping was observed”. For the same compound, the “morphologic alteration (H/E staining)” value in data set [4] is given as “no morphologic alteration”. Moreover, the “melanin content (Fontana-Masson stained sections)” value in data set [1] (0.011 μg/ml) is 125.6+/−15.4%; in data set [1] (0.3 μg/ml), 129+/−5.7%. In addition, in data set [1] (0.3 μg/ml vs DMSO 0.005%), the “pigmentation / melanin content (Fontana-Masson)” value is “significantly increased; also recorded: significant increase”. Besides, the “melanin content by chemical extraction” value in data set [5] is recorded as “increased, with a dose effect”. Besides, the cell viability entry in data set [6] (0.5% and 0.9% topical, compared to the stripped batch) is recorded as “no modification of cell viability”. For the same compound, the melanin increase in data set [6] (0.9% dose, topical, stripped explants, significant (p<0.1)) amounted to 36%. For the same compound, the pIC50 is less than 7.70 in data set [7] (Estimated IC50 Values, SIK3(h), ATP 45 μM) and less than 7.70 in data set [7] (SIK3). Moreover, the “decrease of apoptotic cell numbers (TUNEL stained surface)” value in data set [8] came to 97%.

The term pIC50 denotes the IC50 on a negative log10 scale, so that one unit is a factor of ten.
